Our source for the IC50 values is patent publication US20090285774A1, “Hepatitis C Virus Inhibitors” (Bristol-Myers Squibb Company, priority 2008, published 2009).

Read-outs that look alike come from different tables or passages of the source.

The target of the test is T1, HCV NS3/4A protease complex, BMS strain (genotype 1a) (UniProt P27958, species not given/STRAIN_BMS).
T1 construct: DNA encoding the recombinant HCV NS3/4A protease complex (amino acids 1027 to 1711) for these strains [given for H77 and J4L6S only]; These are given only for the H77 and J4L6S constructs
The experiment in a line: FRET peptide assay to monitor HCV NS3/4A proteolytic activity (BMS strain). The class given is biochemical. An excerpt:
HCV NS3 protease complexes, derived from the BMS strain, H77 strain or J4L6S strain, were generated, as described below. These purified recombinant proteins were generated for use in a homogeneous assay (see below) to provide an indication of how effective compounds of the present disclosure would be in inhibiting HCV NS3 proteolytic activity.
Serum from an HCV-infected patient was obtained from Dr. T. Wright, San Francisco Hospital. An engineered full-length cDNA (compliment deoxyribonucleic acid) template of the HCV genome (BMS strain) was constructed from DNA fragments obtained by reverse transcription-PCR (RT-PCR) of serum RNA (ribonucleic acid) and using primers selected on the basis of homology between other genotype 1a strains. From the determination of the entire genome sequence, a genotype 1a was assigned to the HCV isolate according to the classification of Simmonds et al. (See P Simmonds, K A Rose, S Graham, S W Chan, F McOmish, B C Dow, E A Follett, P L Yap and H Marsdeni, J. Clin. Microbiol., 31(6):1493-1503 (1993)). […] The infectious clones, H77 (1a genotype) and J4L6S (1b genotype) were obtained from R. Purcell (NIH) and the sequences are published in Genbank (AAB67036, see Yanagi, M., Purcell, R. H., Emerson, S. U. and Bukh, J. Proc. Natl. Acad. Sci. U.S.A. 94(16):8738-8743 (1997); AF054247, see Yanagi, M., St Claire, M., Shapiro, M., Emerson, S. U., Purcell, R. H. and Bukh, J, Virology 244 (1), 161-172. (1998)).
The H77 and J4L6S strains were used for production of recombinant NS3/4A protease complexes. DNA encoding the recombinant HCV NS3/4A protease complex (amino acids 1027 to 1711) for these strains were manipulated as described by P. Gallinari et al. (see Gallinari P, Paolini C, Breruian D, Nardi C, Steinlkuhler C, De Francesco R. Biochemistry. 38(17);5620-32, (1999)). Briefly, a three-lysine solubilizing tail was added at the 3′-end of the NS4A coding region. The cysteine in the P1 position of the NS4A-NS4B cleavage site (amino acid 1711) was changed to a glycine to avoid the proteolytic cleavage of the lysine tag. Furthermore, a cysteine to serine mutation was introduced by PCR at amino acid position 1454 to prevent the autolytic cleavage in the NS3 helicase domain. The variant DNA fragment was cloned in the pET21b bacterial expression vector (Novagen) and the NS3/4A complex was expressed in Escherichia. coli strain BL21 (DE3) (Invitrogen) following the protocol described by P. Gallinari et al. (see Gallinari P, Breinan D, Nardi C, Brunetti M, Tomei L, Steinkuhler C, De Francesco R., J Virol. 72(8):6758-69 (1998)) with modifications. Briefly, the NS3/4A protease complex expression was induced with 0.5 millimolar (mM) Isopropyl β-D-1-thiogalactopyranoside (IPTG) for 22 hours (h) at 20° C. A typical fermentation (1 Liter (L)) yielded approximately 10 grams (g) of wet cell paste. The cells were resuspended in lysis buffer (10 mL/g) consisting of 25 mM N-(2-Hydroxyethyl)Piperazine-N′-(2-Ethane Sulfonic acid) (HEPES), pH 7.5, 20% glycerol, 500 mM Sodium Chloride (NaCl), 0.5% Triton X-100, 1 microgram/milliliter (“μg/mL”) lysozyme, 5 mM Magnesium Chloride (MgCl2), 1 μg/ml DnaseI, 5mM β-Mercaptoethanol (βME), Protease inhibitor-Ethylenediamine Tetraacetic acid (EDTA) free (Roche), homogenized and incubated for 20 minutes (min) at 4° C. The homogenate was sonicated and clarified by ultra-centrifugation at 235000 g for 1 hour (h) at 4° C. Imidazole was added to the supernatant to a final concentration of 15 mM and the pH adjusted to 8.0. The crude protein extract was loaded on a Nickel-Nitrilotriacetic acid (Ni-NTA) column pre-equilibrated with buffer B (25 mM HEPES, pH 8.0, 20% glycerol, 500 mM NaCl, 0.5% Triton X-100, 15 mM imidazole, 5 mM βMB). The sample was loaded at a flow rate of 1 mL/min. The column was washed with 15 column volumes of buffer C (same as buffer B except with 0.2% Triton X-100). The protein was eluted with 5 column volumes of buffer D (same as buffer C except with 200 mM Imidazole). […]

T1 sequence (P27958 1027-1657, stated change not applied, one chain of several): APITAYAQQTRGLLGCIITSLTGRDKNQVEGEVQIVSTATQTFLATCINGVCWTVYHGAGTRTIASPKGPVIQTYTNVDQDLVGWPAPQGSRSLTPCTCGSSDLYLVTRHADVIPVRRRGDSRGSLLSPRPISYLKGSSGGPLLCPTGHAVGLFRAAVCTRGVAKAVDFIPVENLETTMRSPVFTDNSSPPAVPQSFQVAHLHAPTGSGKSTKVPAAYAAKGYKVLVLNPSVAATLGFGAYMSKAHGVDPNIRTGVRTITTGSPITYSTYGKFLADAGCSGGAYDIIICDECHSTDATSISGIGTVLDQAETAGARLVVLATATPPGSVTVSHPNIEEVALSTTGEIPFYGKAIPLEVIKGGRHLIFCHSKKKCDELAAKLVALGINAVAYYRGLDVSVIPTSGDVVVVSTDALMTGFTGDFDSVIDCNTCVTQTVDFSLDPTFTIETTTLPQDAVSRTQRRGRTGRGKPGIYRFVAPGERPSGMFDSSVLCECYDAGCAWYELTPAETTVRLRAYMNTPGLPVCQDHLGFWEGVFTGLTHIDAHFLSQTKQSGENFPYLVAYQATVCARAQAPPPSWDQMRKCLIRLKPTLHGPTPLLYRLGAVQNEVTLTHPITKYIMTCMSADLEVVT

Turning to `C=C[C@@H]1C[C@]1(NC(=O)[C@@H]1C[C@@H](OC(=O)N2Cc3cccc(F)c3C2)CN1C(=O)C(Nc1cc(C)cc(C)n1)C(C)C)C(=O)NS(=O)(=O)C1CC1` (single isomer, unassigned) [Compound 2A], the IC50 was 8.9 nM (BMS strain, read-out: IC50 against the NS3/4A BMS strain in the enzyme assay) and 4 to 20 nM (NS3/4A BMS strain, activity range, read-out: IC50 (range or value)).
